Drawing on US7973069B2 (PTC Therapeutics, Inc., priority 2004, dated 2011), this text covers IC50 for 72 compounds.

Values joined by “and” are separate entries in the source; they are usually repeats but may differ in a detail not shown here. Equal entries are not always repeated.

The test concerns HCV replicon. Format: cell-based.
In general, IC50 refers to the concentration that inhibits the measured activity by half. A high value points to a need for much substance. With `CCn1c(-c2cccc(NC(=O)NCCCl)c2)c(C#N)c2ccc(OCCCN3CCOCC3)cc21` [Compound 1036], the concentration for half-maximal inhibition (IC50) is 0.5 to 2 µM.
The result for `CCCn1c(-c2ccc(NS(=O)(=O)C3CC3)cc2)c(C#N)c2ccc(OCc3ccccc3)cc21` [Compound 924] reads 0.5 to 2 µM.
Then `CCCCNC(=O)Nc1ccc(-c2c(C#N)c3ccc(OC)cc3n2CC)cc1F` [Compound 910], with 0.5 to 2 µM.
Consider `CC(OC(=O)Nc1ccc(-c2c(C#N)c3ccc(OCCn4ccnc4)cc3n2C2CCC2)cc1)C1CC1` (stereo not drawn) [Compound 1328], for which the IC50 was < 0.5 µM.
The result for `CCOc1ccc2c(C#N)c(-c3ccc(NC(=O)OCCN4CCOCC4)cc3)n(C3CCC3)c2c1` [Compound 1192] reads 0.5 to 2 µM; that for `C=CCNC(=O)Nc1ccc(-c2c(C#N)c3cc4c(cc3n2C2CCC2)OCO4)cc1` [Compound 1304], 0.5 to 2 µM.
The result for `CCOc1ccc2c(c1)c(C#N)c(-c1ccc(NC(=O)NCCc3ccccc3)cc1)n2C1CCC1` [Compound 1227] reads < 0.5 µM; that for `CCCCn1c(-c2ccc(NC(=O)NCCC)cc2)c(C#N)c2ccc(OCC)cc21` [Compound 1066], 0.5 to 2 µM.
As to `CCOc1ccc2c(c1)c(C#N)c(-c1ccc(NC(=O)NC3CCCC3)cc1)n2C1CCC1` [Compound 1226], the IC50 was < 0.5 µM.
`CCCOc1ccc2c(C#N)c(-c3ccc(NC(=O)OC4CCCC4)cc3)n(C(C)C)c2c1` [Compound 1205]: the IC50 was < 0.5 µM.
Then `CCCOc1ccc2c(C#N)c(-c3ccc(NC(=O)OC4CCC4)cc3)n(C(C)C)c2c1` [Compound 1247], with < 0.5 µM; and `CCCOC(=O)Nc1ccc(-c2c(C#N)c3cc(OCc4ccccc4)ccc3n2CC)cc1` [Compound 926], with 0.5 to 2 µM; and `CCCCNC(=O)Nc1cccc(-c2c(C#N)c3ccc(OCCCN4CCOCC4)cc3n2CC)c1` [Compound 1067], with 0.5 to 2 µM.
Then `CCCNC(=O)Nc1ccc(-c2c(C#N)c3ccc(OC)cc3n2CC)cc1C` [Compound 967], with 0.5 to 2 µM; and `CCn1c(-c2ccc(NS(=O)(=O)C(C)C)cc2)c(C#N)c2ccc(OCCF)cc21` [Compound 912], with 0.5 to 2 µM.
Then `CCC(C)OC(=O)Nc1ccc(-c2c(C#N)c3ccc(OCC4CCCO4)cc3n2C2CCC2)cc1` (stereo not drawn) [Compound 1283], with < 0.5 µM; and `CCOc1ccc2c(C#N)c(-c3cccc(N4CCCS4(=O)=O)c3)n(CC)c2c1` [Compound 907], with 0.5 to 2 µM; and `CCS(=O)(=O)Nc1ccc(-c2c(C#N)c3ccc(OC)cc3n2COC)cc1` [Compound 988], with 0.5 to 2 µM.
With `CCn1c(-c2ccc(N3CCCS3(=O)=O)cc2)c(C#N)c2ccc(Oc3cnccn3)cc21` [Compound 1053], the IC50 lay within 0.5 to 2 µM.
Then `CC(C)NC(=O)Nc1ccc(-c2c(C#N)c3ccc(OCCn4ccnc4)cc3n2C2CCC2)cc1` [Compound 1322], with < 0.5 µM; and `CCOC(=O)Nc1ccc(-c2c(C#N)c3ccc(OCC)cc3n2C2CCC2)cc1` [Compound 971], with < 0.5 µM; and `COc1ccc2c(c1)c(C#N)c(-c1ccc(NC(=O)NC3CCCC3)cc1)n2C1CCC1` [Compound 1165], with 0.5 to 2 µM.
`CCOC(=O)Nc1ccc(-c2c(C#N)c3cc(OC)ccc3n2C2CCC2)cc1` [Compound 1176]: the IC50 was in the range of 0.5 to 2 µM.
Then `C=CCOC(=O)Nc1ccc(-c2c(C#N)c3ccc(OCC)cc3n2C2CCC2)cc1` [Compound 981], with < 0.5 µM; and `CCOc1ccc2c(C#N)c(-c3ccc(NC(=O)OC(C)C)cc3)n(C3CCCC3)c2c1` [Compound 1129], with < 0.5 µM.
Then `CCOc1ccc2c(C#N)c(-c3ccc(NC(=O)OCC(C)C)cc3)n(C3CCC3)c2c1` [Compound 979], with < 0.5 µM; and `COc1ccc2c(C#N)c(-c3ccc(NC(=O)C4CC4)cc3)n(CC3CC3)c2c1` [Compound 983], with 0.5 to 2 µM.
Then `CCCOC(=O)Nc1ccc(-c2c(C#N)c3ccc(OC)cc3n2CC2CC2)cc1` [Compound 985], with 0.5 to 2 µM; and `C=CCNC(=O)Nc1ccc(-c2c(C#N)c3cc(OC)ccc3n2CC)cc1` [Compound 1013], with 0.5 to 2 µM; and `CCn1c(-c2ccc(NC(=O)NCCCl)cc2)c(C#N)c2ccc(OCCCN3CCOCC3)cc21` [Compound 1126], with 0.5 to 2 µM.
In turn, `CCOc1ccc2c(C#N)c(-c3ccc(NS(=O)(=O)C4CC4)cc3)n(C3CCCC3)c2c1` [Compound 1141] returned an IC50 of 0.5 to 2 µM.
Then `CC(OC(=O)Nc1ccc(-c2c(C#N)c3ccc(OCC4CCCO4)cc3n2C2CCC2)cc1)C1CC1` (stereo not drawn) [Compound 1281], with < 0.5 µM; and `CCCOC(=O)Nc1ccc(-c2c(C#N)c3ccc(OCC)cc3n2CC)cc1` [Compound 949], with 0.5 to 2 µM.
The result for `CCCn1c(-c2ccc(NS(=O)(=O)CCC)cc2)c(C#N)c2ccc(OCc3ccccc3)cc21` [Compound 923] reads 0.5 to 2 µM; that for `CCn1c(-c2ccc(NS(=O)(=O)C3CC3)cc2)c(C#N)c2cc3c(cc21)OCO3` [Compound 1038], 0.5 to 2 µM.
The result for `CCOc1ccc2c(C#N)c(-c3ccc(NC(=O)OCC4CC4)cc3)n(C3CCC3)c2c1` [Compound 1146] reads < 0.5 µM.
As for `CCOc1ccc2c(c1)c(C#N)c(-c1ccc(NC(=O)NC(C)C)cc1)n2C1CCC1` [Compound 1223], the IC50 was < 0.5 µM.
For `CCCOc1ccc2c(C#N)c(-c3ccc(NC(=O)OCC(C)C)cc3)n(C(C)C)c2c1` [Compound 1206], the 50% inhibitory concentration (IC50) was < 0.5 µM.
In turn, `C=CCOC(=O)Nc1ccc(-c2c(C#N)c3cc(OC)ccc3n2C2CCC2)cc1` [Compound 1180] registered an IC50 of 0.5 to 2 µM.
Consider `CCOc1ccc2c(c1)c(C#N)c(-c1ccc(NC(=O)OC(C)C3CC3)cc1)n2C1CCC1` (stereo not drawn) [Compound 1295], for which the concentration for half-maximal inhibition (IC50) is < 0.5 µM.
Then `CCn1c(-c2cccc(N3CCOC3=O)c2)c(C#N)c2ccc(OCCCN3CCOCC3)cc21` [Compound 1069], with 0.5 to 2 µM; and `CCn1c(-c2ccc(N)c(C)c2)c(C#N)c2ccc(OC)cc21` [Compound 927], with 0.5 to 2 µM; and `COc1ccc2c(c1)c(C#N)c(-c1ccc(NS(=O)(=O)C3CC3)cc1)n2C1CCC1` [Compound 1182], with < 0.5 µM and > 2 µM.
For `CC(C)n1c(-c2ccc(NS(=O)(=O)C3CC3)cc2)c(C#N)c2ccc(OC(F)F)cc21` [Compound 868], the IC50 was < 0.5 µM.
The result for `CCCNC(=O)Nc1ccc(-c2c(C#N)c3ccc(OCCF)cc3n2CC)cc1` [Compound 955] reads 0.5 to 2 µM and < 0.5 µM; that for `CCOc1ccc2c(C#N)c(-c3ccc(NC(=O)OC4CCCC4)cc3)n(C3CCCC3)c2c1` [Compound 1211], < 0.5 µM.
Compound `CC#CCOC(=O)Nc1ccc(-c2c(C#N)c3ccc(OCC)cc3n2C2CCC2)cc1` [Compound 976] gave an IC50 of 0.5 to 2 µM.
`CCOc1ccc2c(C#N)c(-c3ccc(NC(=O)OC(C)COC)cc3)n(C3CCC3)c2c1` (stereo not drawn) [Compound 1313]: the IC50 was < 0.5 µM.
The result for `C=CCNC(=O)Nc1ccc(-c2c(C#N)c3ccc(OC(F)F)cc3n2CC2CC2)cc1` [Compound 1070] reads 0.5 to 2 µM; that for `CCNC(=O)Nc1ccc(-c2c(C#N)c3ccc(OC(F)(F)F)cc3n2CC)cc1` [Compound 892], 0.5 to 2 µM; that for `CCOc1ccc2c(C#N)c(-c3ccc(NC(=O)OC(C)C(C)(C)C)cc3)n(C3CCC3)c2c1` (stereo not drawn) [Compound 1312], < 0.5 µM.
Then `CCOc1ccc2c(C#N)c(-c3ccc(NC(=O)OC4CCOC4)cc3)n(C3CCC3)c2c1` (stereo not drawn) [Compound 1215], with < 0.5 µM; and `CCCn1c(-c2ccc(NS(C)(=O)=O)cc2)c(C#N)c2ccc(OCc3ccccc3)cc21` [Compound 921], with 0.5 to 2 µM.
`CCCn1c(-c2cccc(NS(=O)(=O)CC)c2)c(C#N)c2cc(OCc3ccccc3)ccc21` [Compound 919] registered a half-inhibitory concentration (IC50) of 0.5 to 2 µM.
As to `CCCCNC(=O)Nc1ccc(-c2c(C#N)c3ccc(OCCF)cc3n2CC)cc1` [Compound 957], the 50% inhibitory concentration (IC50) was < 0.5 µM.
`CCCn1c(-c2ccc(NS(C)(=O)=O)cc2)c(C#N)c2cc(OC)ccc21` [Compound 995]: the IC50 was in the range of 0.5 to 2 µM.
The result for `CCCS(=O)(=O)Nc1ccc(-c2c(C#N)c3ccc(OCC)cc3n2C2CCC2)cc1` [Compound 932] reads < 0.5 µM.
`COCCn1c(-c2ccc(N3CCCS3(=O)=O)cc2)c(C#N)c2ccc(OC(F)(F)F)cc21` [Compound 906] showed a concentration for half-maximal inhibition (IC50) of 0.5 to 2 µM.
With `CCN(c1ccc(-c2c(C#N)c3ccc(C(F)(F)F)cc3n2CC)cc1)S(=O)(=O)CC` [Compound 1006], the IC50 was < 0.5 µM and 0.5 to 2 µM.
The result for `CCCS(=O)(=O)Nc1ccc(-c2c(C#N)c3ccc(OC)cc3n2CC)cc1C` [Compound 961] reads 0.5 to 2 µM; that for `CCCn1c(-c2ccc(NS(=O)(=O)CCC)cc2)c(C#N)c2cc(OC)ccc21` [Compound 1041], 0.5 to 2 µM and < 0.5 µM.
The result for `N#Cc1c(-c2ccc(NC(=O)NC3CCC3)cc2)n(C2CCC2)c2cc(OCC3CCCO3)ccc12` (stereo not drawn) [Compound 1288] reads < 0.5 µM; that for `CCCn1c(-c2ccc(N3CCCS3(=O)=O)cc2)c(C#N)c2ccc(OC(F)(F)F)cc21` [Compound 904], 0.5 to 2 µM; that for `CCOc1ccc2c(C#N)c(-c3ccc(NC(=O)NC(C)C)cc3)n(CC3CC3)c2c1` [Compound 1120], < 0.5 µM.
`CCCn1c(-c2ccc(NC(=O)NCC)cc2)c(C#N)c2cc(OC)ccc21` [Compound 999] yielded a half-maximal inhibitory concentration (IC50) of 0.5 to 2 µM.
Then `CCOC(=O)Nc1ccc(-c2c(C#N)c3ccc(OC)cc3n2CC)cc1C` [Compound 964], with 0.5 to 2 µM.
The result for `CCCn1c(-c2ccc(NS(=O)(=O)CC)cc2)c(C#N)c2cc(OC)ccc21` [Compound 996] reads < 0.5 µM and 0.5 to 2 µM.
Turning to `CCOc1ccc2c(C#N)c(-c3ccc(NC(=O)OC)cc3)n(C3CCC3)c2c1` [Compound 970], the IC50 is < 0.5 µM.
Then `CCCS(=O)(=O)Nc1ccc(-c2c(C#N)c3ccc(OCC)cc3n2CC2CCC2)cc1` [Compound 1170], with 0.5 to 2 µM.
The result for `CCCCOC(=O)Nc1ccc(-c2c(C#N)c3cc(OCC)ccc3n2C2CCC2)cc1` [Compound 1198] reads < 0.5 µM; that for `CCn1c(-c2ccc(N3CC(=O)NC3=O)cc2)c(C#N)c2ccc(OC)cc21` [Compound 994], 0.5 to 2 µM.
The result for `Cn1c(-c2ccc(N3CCCS3(=O)=O)cc2)c(C#N)c2ccc(OC(F)(F)F)cc21` [Compound 902] reads 0.5 to 2 µM.
